Experimental findings from patent US11851440B2, “Modulators of eukaryotic initiation factor 2B, compositions and methods” (Denali Therapeutics Inc., priority 2017, dated 2023) are described below.

Each structure is given as a SMILES string. Some results are limits rather than exact numbers.

The test system of the first assay is ISR pathway (ATF4 translation). Put plainly: ATF4 Nano Luciferase reporter integrated stress response (ISR) assay in H4 ATF4-NLuc cells. As to conditions: Homo sapiens, H4 ATF4-NLuc (clone 17) cells; compound 30 minutes, then 50 um sodium arsenite for 6 hours; luminescence readout.
`O=C(NC12CC(c3nnc([C@H]4C[C@@H](OC(F)(F)F)C4)o3)(C1)C2)c1ccc2cc(C(F)(F)F)ccc2n1` [Example 166, N-[1-[5-[3-cis-(trifluoromethoxy)cyclobutyl]-1,3,4-oxadiazol-2-yl]-3-bicyclo[1.1.1]pentanyl]-6-(trifluoromethyl)quinoline-2-carboxamide] had an IC50 of 0.0081 µM.

Staying with this assay, now noted: Homo sapiens, read-out: Activity (IC50), H4 ATF4-NLuc (clone 17) cells; compound 30 minutes, then 50 um sodium arsenite for 6 hours; luminescence readout.
Turning to `O=C(CO[C@H]1C[C@@H](OC(F)(F)F)C1)NC12CC(n3cnc([C@H]4C[C@@H](OC(F)(F)F)C4)c3)(C1)C2` [Example 63, 2-[3-cis-(trifluoromethoxy)cyclobutoxy]-N-[3-[4-[3-cis-(trifluoromethoxy)cyclobutyl]imidazol-1-yl]-1-bicyclo[1.1.1]pentanyl]acetamide], the IC50 was less than 1 µM.
With `O=C(CO[C@H]1C[C@@H](OC(F)(F)F)C1)NC12CC(c3nnc(-c4ccc(Cl)cn4)s3)(C1)C2` [Example 241], the IC50 is less than 1 µM.
Still for that read-out and setting: the same measure for `O=C(CO[C@H]1C[C@@H](OC(F)(F)F)C1)NC12CC(n3cnc(C4=NCC(C(F)(F)F)O4)c3)(C1)C2` (stereo partly shown) [Example 267]: less than 1 µM; for `O=C(NC12CC(c3nnc([C@H]4C[C@@H](OC(F)(F)F)C4)o3)(C1)C2)c1cc2ccc(Cl)cn2n1` [Example 171]: less than 1 µM; for `O=C(COc1ccc(Cl)c(F)c1)NC12CC(c3cn([C@H]4C[C@@H](OC(F)(F)F)C4)nn3)(C1)C2` [Example 65, 2-(4-chloro-3-fluoro-phenoxy)-N-[3-[1-[3-cis-(trifluoromethoxy)cyclobutyl]triazol-4-yl]-1-bicyclo[1.1.1]pentanyl]acetamide]: less than 1 µM.
On to `O=C(COc1ccc(Cl)c(F)c1)NC12CC(c3nnc(C4CCC4)o3)(C1)C2` [Example 25, 2-(4-chloro-3-fluoro-phenoxy)-N-[1-(5-cyclobutyl-1,3,4-oxadiazol-2-yl)-3-bicyclo[1.1.1]pentanyl]acetamide], for which the 50% inhibitory concentration (IC50) is less than 1 µM.
The same measure, in the same setting: for `C[C@H]1C[C@@H]1c1nnc(C23CC(NC(=O)COc4ccc(Cl)c(F)c4)(C2)C3)o1` (relative stereo) [Example 9, 2-(4-chloro-3-fluoro-phenoxy)-N-[1-[5-[(trans)-2-methylcyclopropyl]-1,3,4-oxadiazol-2-yl]-3-bicyclo[1.1.1]pentanyl]acetamide] the value was less than 1 µM; for `O=C(COc1ccc(Cl)c(F)c1)NC12CC(c3nnc([C@H]4C[C@@H](n5ccnn5)C4)o3)(C1)C2` [Example 245], less than 1 µM.
The same measure, in the same setting: for `O=C(NC12CC(c3nnc([C@H]4C[C@@H](OC(F)(F)F)C4)o3)(C1)C2)c1nc2cc(Cl)ccn2n1` [Example 176] the value was less than 1 µM; for `O=C(CO[C@H]1C[C@@H](OC(F)(F)F)C1)NC12CC(c3nc4cc(Cl)ccc4o3)(C1)C2` [Example 234], 1 to 10 µM; for `O=C(CO[C@H]1C[C@@H](OC(F)(F)F)C1)NC12CC(c3nnc([C@H]4C[C@@H](COC(F)(F)F)C4)o3)(C1)C2` [Example 106, 2-[3-cis-(trifluoromethoxy)cyclobutoxy]-N-[3-[5-[3-cis-(trifluoromethoxymethyl)cyclobutyl]-1,3,4-oxadiazol-2-yl]-1-bicyclo[1.1.1]pentanyl]acetamide], less than 1 µM.
Still for that read-out and setting: the same measure for `O=C(CO[C@H]1C[C@@H](OC(F)(F)F)C1)NC12CC(c3cnc(-c4ccc(Cl)c(F)c4)o3)(C1)C2` [Example 247]: less than 1 µM; for `O=C(COc1ccc(Cl)c(F)c1)NC12CC(c3cn(C4CC(O)C4)nn3)(C1)C2` (stereo not shown) [Example 57]: 1 to 10 µM.
Turning to `O=C(NC12CC(c3nnc([C@H]4C[C@@H](OC(F)(F)F)C4)o3)(C1)C2)c1ccc2cc(C(F)(F)F)ccc2n1` [Example 166, N-[1-[5-[3-cis-(trifluoromethoxy)cyclobutyl]-1,3,4-oxadiazol-2-yl]-3-bicyclo[1.1.1]pentanyl]-6-(trifluoromethyl)quinoline-2-carboxamide], the IC50 was less than 1 µM.
On to `O=C(COc1ccc(Cl)c(F)c1)NC12CC(c3nnc(CO[C@H]4C[C@@H](OC(F)(F)F)C4)o3)(C1)C2` [Example 53], for which the IC50 is less than 1 µM.
In the case of `O=C(COc1ccc(Cl)cc1)NC12CC(n3cnc([C@H]4C[C@H](OC(F)(F)F)C4)c3)(C1)C2` [Example 69, 2-(4-chlorophenoxy)-N-[3-[4-[3-trans-(trifluoromethoxy)cyclobutyl]imidazol-1-yl]-1-bicyclo[1.1.1]pentanyl]acetamide], the half-maximal inhibitory concentration (IC50) is less than 1 µM.
In the case of `O=C(CO[C@H]1C[C@H](OC(F)(F)F)C1)NC12CC(n3cnc(-c4ccc(Cl)cc4)c3)(C1)C2` [Example 141], the IC50 was less than 1 µM.
Same read-out and setting: for `O=C(COc1ccc(Cl)c(F)c1)NC12CC(c3cn([C@H]4C[C@H](OC(F)(F)F)C4)nn3)(C1)C2` [Example 64, 2-(4-chloro-3-fluoro-phenoxy)-N-[3-[1-[3-trans-(trifluoromethoxy)cyclobutyl]triazol-4-yl]-1-bicyclo[1.1.1]pentanyl]acetamide] the value was less than 1 µM; for `O=C(CO[C@H]1C[C@@H](OC(F)(F)F)C1)NC12CC(n3cnc(-c4ccc(C(F)(F)F)c(F)c4)c3)(C1)C2` [Example 149], less than 1 µM; for `Cc1cc(F)ccc1-c1cn(C23CC(NC(=O)CO[C@H]4C[C@@H](OC(F)(F)F)C4)(C2)C3)cn1` [Example 142], less than 1 µM.
As for `O=C(COc1ccc(Cl)c(F)c1)NC12CC(n3cnc([C@H]4C[C@H](OC(F)(F)F)C4)c3)(C1)C2` [Example 62, 2-(4-chloro-3-fluoro-phenoxy)-N-[3-[4-[3-trans-(trifluoromethoxy)cyclobutyl]imidazol-1-yl]-1-bicyclo[1.1.1]pentanyl]acetamide], the IC50 is less than 1 µM.
Still for that read-out and setting: for `CC(C)(C)OC(=O)N1CC(c2nnc(C34CC(NC(=O)COc5ccc(Cl)c(F)c5)(C3)C4)o2)C1` [Example 13, tert-Butyl 3-[5-[3-[[2-(4-chloro-3-fluoro-phenoxy)acetyl]amino]-1-bicyclo[1.1.1]pentanyl]-1,3,4-oxadiazol-2-yl]azetidine-1-carboxylate] the value was less than 1 µM; for `O=C(COc1ccc(Cl)c(F)c1)NC12CC(NC(=O)OC[C@H]3C[C@H](OC(F)(F)F)C3)(C1)C2` [Example 238], less than 1 µM.
Still for that read-out and setting: for `N#C[C@H]1C[C@H](n2cc(C34CC(NC(=O)COc5ccc(Cl)c(F)c5)(C3)C4)nn2)C1` [Example 34, 2-(4-chloro-3-fluorophenoxy)-N-(3-(1-((trans)-3-cyanocyclobutyl)-1H-1,2,3-triazol-4-yl)bicyclo[1.1.1]pentan-1-yl)acetamide] the value was less than 1 µM; for `O=C(COc1ccc(Cl)cc1)NC12CC(c3nnc([C@H]4C[C@@H](O)C4)o3)(C1)C2` [Example 261], 1 to 10 µM.
On to `O=C(COc1ccc(Cl)c(F)c1)NC12CC(c3c[nH]nn3)(C1)C2` [Example 32, N-(3-(1H-1,2,3-triazol-4-yl)bicyclo[1.1.1]pentan-1-yl)-2-(4-chloro-3-fluorophenoxy)acetamide], for which the IC50 was less than 1 µM.
Still for that read-out and setting: the same measure for `O=C(COc1ccc(Cl)c(F)c1)NC12CC(N3CC(COC(F)(F)F)OC3=O)(C1)C2` (stereo not shown) [Example 223]: 1 to 10 µM.
As to `CC(COCC(=O)NC12CC(n3cnc(-c4ccc(Cl)c(F)c4)c3)(C1)C2)OC(F)(F)F` (stereo not shown) [Example 274], the IC50 is less than 1 µM.

Staying with this assay, now noted: read-out: Activity (IC50); H4 ATF4-NLuc (clone 17) cells; compound 30 minutes, then 50 um sodium arsenite for 6 hours; luminescence readout.
Regarding `O=C(COc1ccc(Cl)c(F)c1)NC12CC(C3CN(C4CCC4)C(=O)O3)(C1)C2` (stereo not shown) [Example 219], the IC50 is more than 10 µM.
Same read-out and setting: for `O=C(COC[C@H]1C[C@@H](OC(F)(F)F)C1)NC12CC(c3nnc([C@H]4C[C@@H](OC(F)(F)F)C4)o3)(C1)C2` [Example 226] the value was less than 1 µM.
